Measured values as given in patent publication US20050075371A1, “Methods and compositions for the oral administration of prodrugs of proton pump inhibitors” (ALLERGAN, INC., priority 2003, published 2005).
In brackets after ≈: the same amount, converted by molar mass. Like-named read-outs stand apart in the source and are kept apart here. Blank lines part the entries; values can stand above or below the compound they belong to.

What was measured:
[1] = Systemic half-life after oral or intravenous administration in rats; format: in vivo, rats (Sprague-Dawley); settings: for Systemic omeprazole half-life / half-life: rats; for half-life: Sprague-Dawley, rat, blood
Experimental: (§1) Blood concentrations of the compounds omeprazole, lansoprazole, pantoprazole, rabeprazole, and test compounds were quantified using an achiral liquid chromatography tandem mass spectrometry method (LC-MS/MS). Systemic pharmacokinetic parameters were determined for omeprazole or lansoprazole using non-compartmental analysis in Watson® version 6.3, available from InnaPhase Corporation, Philadelphia, Pa.

[2] = Degradation in simulated gastric fluid; format: physicochemical; settings: simulated gastric fluid (USP, pepsin); pH 1.2
Experimental: Simulated gastric fluid was prepared as specified by USP (http://www.uspnf.com/uspnf/usp26nf21/default.htm, Reagents>Solutions>Test Solutions>Gastric Fluid, Simulated). To make 200 mL of simulated gastric fluid, 0.4 g of sodium chloride and 0.64 g of purified pepsin, with an activity of 800 to 2500 units per mg of protein, was dissolved in 1.4 mL of hydrochloric acid and sufficient water. The solution was adjusted to the appropriate pH with hydrochloric acid.
The pH dependence of the half-life of compound 1 in the simulated gastric fluid is depicted in Table 4A.

[3] = Stability profile in buffered aqueous solutions; format: physicochemical; settings: 25° C.
[4] = Hygroscopicity on storage; format: physicochemical; settings: 14 days of storage at 25° C. at 75% relative humidity
Experimental: The physicochemical properties of compound 1 were analyzed.

[5] = Systemic half-life after oral or intravenous administration in dogs; format: in vivo, dogs (beagle); settings: for half-life: beagle, dog, blood
Experimental: as §1

[6] = Systemic omeprazole after enteric-coated or regular capsules in dogs; format: in vivo; settings: Dog, oral capsule of sodium salt of compound 1
Experimental: (§2) The bioavailability of compound 1 in enterically coated and non enterically coated dosage forms was investigated for dogs and monkeys. Regular and enteric-coated size 3 HPMC capsules (Capsugel, Morris Plains, N.J.) containing compound 1 were prepared by placing the appropriate amount of the sodium salt of compound 1 in the capsule. The enteric-coating material was prepared by dissolving cellulose acetate phthalate in a mixture of isopropyl alcohol and dichloromethane. The entire capsule was dipped in the enteric-coating material, and the isopropyl alcohol and dichloromethane were allowed to evaporate. The dosage forms were administered to the animals and the concentration of the omeprazole in the blood was determined as described in the oral bioavailability determination of Example 2. The maximum concentration of omeprazole (Cmax) and the total area under the curve (AUC) for the animals receiving both enterically coated and non-enterically coated oral dosage forms is presented in Table 4B. In both dogs and monkeys, both the Cmax and the AUC are higher for the non-enterically coated dosage form.

[7] = Systemic omeprazole after enteric-coated or regular capsules in monkeys; format: in vivo; settings: Monkey, oral capsule of sodium salt of compound 1
Experimental: as §2

[8] = Oral administration of solid dosage form to a person suffering from heartburn; format: in vivo; settings: 40 mg compound 1, 50% as sodium salt, oral daily
Experimental: A solid dosage form comprising 40 mg of compound 1, having 50% of the prodrug in the form of the sodium salt, is orally administered daily to a person suffering from heartburn. Relief of pain begins to occur within about 1 day, and continues as long as the person takes the dosage form.

[9] = Solubility profile in buffered aqueous solutions; format: physicochemical; settings: 25° C.
Text: While not intending to be bound in any way by theory, it is believed that this improvement in solubility is due to the deprotonation of a sufficient quantity of the acid.

[10] = system: Caco-2 cells; experiment: Membrane permeability (Papp) across Caco-2 cell monolayer, apical to basolateral; format: in vitro ADME; settings: Caco-2, apical to basolateral, 10 μM, 37° C.
Experimental: (§3) Determination of membrane permeability in all examples described herein was accomplished by the following procedure. This procedure is also used to determine whether a given prodrug falls within the scope of those claims given herein which relate to membrane permeability.
(§4) Caco-2 cells were seeded on Costar™ 12 mm diameter, 0.4 μm pore size transwell filters, and were cultured at 37° C., 5% CO2 in a humidified tissue culture chamber.
(§5) DMEM was equilibrated as a transport buffer in 37° C. water bath an hour before experiment. The cells were then equilibrated in transport buffer for 1 hr at 37° C.
(§6) Dosing solution (10 μM) was prepared by adding a 20 μL aliquot of a 10 mM stock solution of the prodrug to 20 mL of transport buffer.
(§7) Transport across Caco-2 cell monolayer was measured at 37° C., in the apical to basolateral direction (n=3).
(§8) Transport buffer was removed from both apical and basolateral compartment of filters. Dosing solution (0.2 mL) was added to the apical compartment of the cell layers on transwell filters, and 0.8 ml fresh pre-warmed transport buffer was added to basolateral compartment. Timing was started for transport, and at 5, 20, and 60 min after transport started, sample fluid (400 μL) was collected from the basolateral compartment. Fresh transport buffer (400 μL) was added back to the basolateral compartment, and the fluid was thoroughly mixed.
(§9) Transport samples, dosing solution, and standards(100 μL) each were mixed with 100 μl of a 500 ng/ml internal standard (Lansoprazole-D) for LC-MS/MS analysis, and part of each sample (100 μL) was vortexed and transferred into glass LC-MS/MS vials for analysis.
(§10) The apparent permeability coefficient (Papp, cm/sec), otherwise known herein as the membrane permeability, is determined from the following relationship: Papp=J/(ACo) where J (pmol/min) is the transport rate, meaning the rate of prodrug movement through the cell layer, A (cm^2) is the filter surface area, and Co (μM) is the initial dosing concentration.
(§11) The transport rate J, is calculated as the slope of the linear regression fit for the transport amount over time data using Microsoft Excel® 97 SR-2 (Microsoft Corp. Redmond, Wash.).
(§12) Lucifer yellow (LY) was used as a paracellular permeability reference standard to determine integrity of cell layers used in the experiments. LY transport in the apical to basolateral direction was carried out in the same manner as described above. Fluorescence level in basolateral fluid sampled at 5, 20, and 60 min post dose was determined using Fluostar Galaxy (BMG Labtechnologies, Durham, N.C.) at excitation/emission wavelengths of 485/520 nm. A standard curve covering the range from 0.002 to 0.5 mg/mL is constructed to quantify the amount of LY in the transport sample to calculate permeability coefficient (Papp).

[11] = somewhat buffer dependent, Kromer et al., Ekpe et al., cited from earlier work
[12] = Membrane permeability (Papp) across Caco-2 cell monolayer, apical to basolateral; format: in vitro ADME; settings: human, Caco-2, apical to basolateral, 37° C.
Experimental: as §3, §4, §5, §6, §7, §8, §9, §10, §11, §12

[13] = intravenous, equivalent omeprazole dose 1 mg/kg
[14] = oral, equivalent omeprazole dose 10 mg/kg
[15] = pH 3, Citric Acid (0.1 M)/Na2HPO4 (0.2 M)
[16] = pH 5, Citric Acid (0.1 M)/Na2HPO4 (0.2 M)
[17] = pH 7, sodium phosphate (0.1-0.2 M)
[18] = pH 7.4, sodium phosphate (0.1-0.2 M)
[19] = pH 9, sodium phosphate (0.1-0.2 M)
[20] = pH 10, sodium phosphate (0.1-0.2 M)
[21] = oral solution, systemic half-life of the proton pump inhibitor, unit inferred, read-out: Rat T1/2 PPI (converted)
[22] = po, Table 2D, read-out: t1/2 (systemic half-life in dogs after oral administration) (converted)
[23] = po, oral solution, systemic half-life of the proton pump inhibitor, unit inferred, read-out: Dog T1/2 PPI (converted)

Prodrug in the bloodstream 5 minutes after intravenous administration ([1]; rats (Table 2A study), intravenous, 5 minutes): not detected
Systemic omeprazole half-life [1, 13]: 10.8 min
Systemic omeprazole half-life [1, 14]: 102 min
Half-life in Simulated Gastric Fluid [2]: 3 h
Degradation Rate Constant (k) ([3]; pH 1, 0.1 M HCl): 0.194 h⁻¹
Half-life (t1/2) ([3]; pH 1, 0.1 M HCl): 3.6 h
Shelf life (t90%) ([3]; pH 1, 0.1 M HCl): 0.5 h
Degradation Rate Constant (k) [3, 15]: 0.009 h⁻¹
Half-life (t1/2) [3, 15]: 78.0 h
Shelf life (t90%) [3, 15]: 11.9 h
Degradation Rate Constant (k) [3, 16]: 0.008 h⁻¹
Half-life (t1/2) [3, 16]: 89.2 h
Shelf life (t90%) [3, 16]: 13.6 h
Degradation Rate Constant (k) [3, 17]: 0.002 h⁻¹
Half-life (t1/2) [3, 17]: 286.8 h
Shelf life (t90%) [3, 17]: 43.6 h
Degradation Rate Constant (k) [3, 18]: 0.002 h⁻¹
Half-life (t1/2) [3, 18]: 291.2 h
Shelf life (t90%) [3, 18]: 44.3 h
Degradation Rate Constant (k) [3, 19]: 0.030 h⁻¹
Half-life (t1/2) [3, 19]: 23.0 h
Shelf life (t90%) [3, 19]: 3.5 h
Degradation Rate Constant (k) [3, 20]: 0.298 h⁻¹
Half-life (t1/2) [3, 20]: 2.3 h
Shelf life (t90%) [3, 20]: 0.4 h
weight gain [4]: 9%
Systemic omeprazole half-life [5, 13]: 1.0 h
Dog T1/2 PPI ([5]; oral solution, systemic half-life of the proton pump inhibitor, unit inferred): 2.08 h
t1/2 (systemic half-life in dogs after oral administration) ([5]; oral, Table 2D): 2.4 h
Systemic omeprazole half-life [5, 14]: 2.4 h
AUC Omeprazole/Dose ([6]; Enteric Coating): 82.2 ± 18.4 ng·h/mL/mg/kg
Cmax Omeprazole/Dose ([6]; Enteric Coating): 22.5 ± 7.3 ng/mL/mg/kg
AUC Omeprazole/Dose ([6]; Regular Capsule): 91.3 ± 32.9 ng·h/mL/mg/kg
Cmax Omeprazole/Dose ([6]; Regular Capsule): 29.2 ± 11.8 ng/mL/mg/kg
AUC Omeprazole/Dose ([7]; Enteric Coating): 18.9 ± 7.9 ng·h/mL/mg/kg
Cmax Omeprazole/Dose ([7]; Enteric Coating): 6.09 ± 1.04 ng/mL/mg/kg
AUC Omeprazole/Dose ([7]; Regular Capsule): 19.7 ± 8.8 ng·h/mL/mg/kg
Cmax Omeprazole/Dose ([7]; Regular Capsule): 14.0 ± 17.1 ng/mL/mg/kg
Solubility ([9]; pH 1, 0.1 M HCl): 1.8 mg/mL (≈ 3.22 mM)
Solubility [9, 15]: 0.4 mg/mL (≈ 0.715 mM)
Solubility [9, 16]: >50 mg/mL
Solubility [9, 17]: >50 mg/mL
Solubility [9, 19]: >50 mg/mL
Permeability [10]: 1.2e-07 cm/s
Structure (SMILES): COc1ccc2c(c1)nc([S+]([O-])Cc1ncc(C)c(OC)c1C)n2S(=O)(=O)c1ccc(OCC(=O)O)cc1 (centres unmarked) [Compound 1]
Relief of pain begins to occur [8]: ≤ 1 days

half-life ([1]; intravenous, equivalent omeprazole dose 1 mg/kg, read-out: Systemic omeprazole half-life (converted)): 9 min
half-life [1, 21]: 18.5 min
half-life ([1]; oral, equivalent omeprazole dose 10 mg/kg, read-out: Systemic omeprazole half-life (converted)): 18.6 min
half-life ([5]; iv, 1 mg/kg, intravenous, equivalent omeprazole dose 1 mg/kg, read-out: Systemic omeprazole half-life (converted)): 36 min
half-life ([5]; po, 10 mg/kg, oral, equivalent omeprazole dose 10 mg/kg, read-out: Systemic omeprazole half-life (converted)): 42 min
half-life [5, 22]: 42 min
half-life [5, 23]: 41.8 min
Papp A→B at 60 min, 10 μM [12]: 13 ×10⁻⁶ cm/s
Structure (SMILES): COc1ccc2[nH]c([S+]([O-])Cc3ncc(C)c(OC)c3C)nc2c1 (centres unmarked) [Omeprazole, reference compound]
typical half-life (aqueous stability) ([11]; pH 5): about 1 hour
typical half-life (aqueous stability) ([11]; pH 7): about 40 hours

half-life [1, 21]: 30.6 min
half-life [5, 22]: 34.2 min
half-life [5, 23]: 34.4 min
Papp A→B at 60 min, 10 μM [12]: 15 ×10⁻⁶ cm/s
Structure (SMILES): Cc1c(OCC(F)(F)F)ccnc1C[S+]([O-])c1nc2ccccc2[nH]1 (centres unmarked) [Lansoprazole, reference compound]
